{
  "source": "paper PMC5716991",
  "about": "“The anthelmintic praziquantel is a human serotoninergic G-protein-coupled receptor ligand” (Nature Communications, 2017)",
  "target": "T1, 5-HT2B receptor (Homo sapiens, UniProt P41595)",
  "T1 construct": "gene HTR2B",
  "T1 sequence (P41595 whole entry)": "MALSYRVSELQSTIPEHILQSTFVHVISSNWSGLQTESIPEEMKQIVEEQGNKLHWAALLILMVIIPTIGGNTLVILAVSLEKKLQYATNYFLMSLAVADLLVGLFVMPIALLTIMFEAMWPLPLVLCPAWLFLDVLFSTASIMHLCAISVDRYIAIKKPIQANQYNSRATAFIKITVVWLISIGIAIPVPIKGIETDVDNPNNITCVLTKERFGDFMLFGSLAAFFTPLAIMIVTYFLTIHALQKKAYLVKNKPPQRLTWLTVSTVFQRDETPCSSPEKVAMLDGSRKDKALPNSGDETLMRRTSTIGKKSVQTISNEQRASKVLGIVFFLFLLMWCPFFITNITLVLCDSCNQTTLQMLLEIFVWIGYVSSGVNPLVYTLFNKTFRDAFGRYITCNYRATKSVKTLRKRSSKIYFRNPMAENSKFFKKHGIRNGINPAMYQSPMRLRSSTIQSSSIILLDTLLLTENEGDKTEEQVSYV",
  "experiment": "[3H]-LSD radioligand displacement at […] (PDSP primary screen); partial agonist in Ca2+ flux",
  "assay_type": "binding",
  "data": [
    {"smiles": "O=C(C1CCCCC1)N1CC(=O)N2CCc3ccccc3[C@@H]2C1", "note": "[(R)-PZQ]", "values": [
      {"measurement": "[3H]-LSD radioligand displacement at 5 μM (PDSP primary screen); partial agonist", "result": "the human 5-HT2B receptor (5-HT2BR)—where inhibition seen with (±)-PZQ was attributable solely to (R)-PZQ"}
    ]}
  ]
}
